The source of these data is ChEMBL document CHEMBL1131855, “Nonpeptidic SH2 inhibitors of the tyrosine kinase ZAP-70” (Bioorg Med Chem Lett, 1999).

The target of test [1] is Tyrosine-protein kinase SYK (Homo sapiens, UniProt P43405). The experiment in a line: Affinity for Syk protein tyrosine kinase.
Test [2] concerns the target Proto-oncogene tyrosine-protein kinase Src (Homo sapiens, UniProt P12931). Kind of test: Affinity for Src protein tyrosine kinase.
The target in test [3] is T1, Tyrosine-protein kinase ZAP-70 (Homo sapiens, UniProt P43403).
T1 sequence (P43403 whole entry): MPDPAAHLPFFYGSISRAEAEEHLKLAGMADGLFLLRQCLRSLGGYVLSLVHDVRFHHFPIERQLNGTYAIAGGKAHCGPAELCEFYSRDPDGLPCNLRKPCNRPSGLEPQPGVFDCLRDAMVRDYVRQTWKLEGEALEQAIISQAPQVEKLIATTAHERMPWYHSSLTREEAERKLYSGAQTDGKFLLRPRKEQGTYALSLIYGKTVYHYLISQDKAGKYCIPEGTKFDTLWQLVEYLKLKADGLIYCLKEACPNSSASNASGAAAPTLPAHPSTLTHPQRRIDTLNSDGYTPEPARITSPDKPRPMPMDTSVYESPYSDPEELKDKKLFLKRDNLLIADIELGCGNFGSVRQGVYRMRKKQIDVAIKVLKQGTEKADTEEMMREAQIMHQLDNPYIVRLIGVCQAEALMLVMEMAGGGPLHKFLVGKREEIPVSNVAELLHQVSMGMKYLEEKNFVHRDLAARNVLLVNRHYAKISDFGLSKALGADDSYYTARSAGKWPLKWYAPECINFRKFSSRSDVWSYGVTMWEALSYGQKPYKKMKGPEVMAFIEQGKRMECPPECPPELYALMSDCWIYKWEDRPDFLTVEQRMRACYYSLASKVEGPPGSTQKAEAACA
The experiment in a line: Affinity for Zeta-chain (TCR) associated protein kinase 70 kDa (ZAP70).

The structures appear in SMILES notation.

Chain of Proto-oncogene tyrosine-protein kinase Src (P12931 2-536 limits assumed): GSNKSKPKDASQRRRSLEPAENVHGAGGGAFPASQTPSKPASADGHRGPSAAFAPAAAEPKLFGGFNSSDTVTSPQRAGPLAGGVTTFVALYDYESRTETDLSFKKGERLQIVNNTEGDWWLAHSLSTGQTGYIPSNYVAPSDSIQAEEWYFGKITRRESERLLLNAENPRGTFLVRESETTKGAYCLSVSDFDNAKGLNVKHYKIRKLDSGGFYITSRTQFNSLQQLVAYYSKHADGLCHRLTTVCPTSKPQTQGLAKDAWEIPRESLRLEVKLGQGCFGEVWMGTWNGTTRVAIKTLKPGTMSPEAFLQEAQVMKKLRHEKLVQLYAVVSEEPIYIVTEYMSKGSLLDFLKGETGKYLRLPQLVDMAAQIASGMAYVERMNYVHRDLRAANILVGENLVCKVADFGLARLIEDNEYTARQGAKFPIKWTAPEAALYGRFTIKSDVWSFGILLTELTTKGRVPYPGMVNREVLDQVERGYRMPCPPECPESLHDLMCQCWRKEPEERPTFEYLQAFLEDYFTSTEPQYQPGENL

Turning to `C[C@H](NC(=O)c1cc2cc(OP(=O)(O)O)ccc2[nH]1)c1nc(Cc2ccc(Cl)c(Cl)c2)no1`, the values for the IC50 in test [1] and in test [2] were 434 µM and 81 µM, respectively.
In test [2], `CC(=O)N[C@@H](Cc1ccc(OP(=O)(O)O)cc1)C(=O)N[C@@H](C)c1nc(Cc2ccc(C(F)(F)F)cc2)no1` showed an IC50 of 72 µM.
Take `C[C@H](NC(=O)[C@@H](CC(=O)O)Cc1ccc(OP(=O)(O)O)cc1)c1nc(Cc2ccc(Cl)c(Cl)c2)no1`: the 50% inhibitory concentration (IC50) in test [1] is > 500 µM; in test [2], 53 µM.
With `O=C(O)C[C@@H](Cc1ccc(OP(=O)(O)O)cc1)C(=O)N[C@@H](CO)c1nc(Cc2ccc(Cl)c(Cl)c2)no1`, the 50% inhibitory concentration (IC50) is > 500 µM in test [1] and 54 µM in test [2].
Regarding `C[C@H](NC(=O)CCc1ccc(OP(=O)(O)O)cc1)c1nc(Cc2ccc(Cl)c(Cl)c2)no1`, the IC50 in test [3] was 198 µM; in test [1], > 500 µM; in test [2], 459 µM.
For the compound `C[C@H](NC(=O)Nc1cccc2cc(OP(=O)(O)O)ccc12)c1nc(Cc2ccc(Cl)c(Cl)c2)no1`, the concentration for half-maximal inhibition (IC50) came to 310 µM in test [1] and 198 µM in test [2].
For the compound `CC(=O)N[C@@H](Cc1ccc(OP(=O)(O)O)cc1)C(=O)N[C@@H](C)c1nc(Cc2ccc(Cl)c(Cl)c2)no1`, in test [2], the IC50 was 210 µM.
For `C[C@H](NC(=O)[C@@H](CC(=O)O)Cc1ccc(OP(=O)(O)O)cc1)c1nc(Cc2ccc(C(F)(F)F)cc2)no1`, the 50% inhibitory concentration (IC50) is > 500 µM in test [1] and 102 µM in test [2].
The matching figures for `C[C@H](NC(=O)[C@H](Cc1ccc(OP(=O)(O)O)cc1)CS(=O)(=O)C(C)(C)C)c1nc(Cc2ccc(C(F)(F)F)cc2)no1`: > 500 µM and 205 µM.
